Test results from publication PMC11930985 (Nature Communications, 2025).
≈ marks a conversion by molar mass, not a printed value. Where “and” joins values, the source holds several entries; their conditions need not be identical. Equal entries are not always repeated.

Key:
CYP3A4/5 = system: CYP3A4/5; design: method as in Investigator's Brochure (IB) version 5.0; settings: ref Investigator's Brochure (IB) version 5.0; cited from earlier work
Yes [1] = system: Yes; design: method as in Investigator's Brochure (IB) version 5.0; settings: ref Investigator's Brochure (IB) version 5.0; cited from earlier work
pSTAT5 Y694 = assay: CyTOF maximal inhibition in Undefined/Immature Myeloid cells: pSTAT5; assay type: in vivo, human
Description: (§1) Pharmacodynamic endpoints included the measurement of inhibition of pAXL, pERK, pAKT, pS6 and pSTAT1/3/5 in blast cells (defined as cells with abnormal surface marker expression as compared to healthy donor peripheral blood mononuclear cells and undefined/immature myeloid cells (defined as cells carrying myeloid markers but lacking distinguishing terminal differentiation markers). Mass cytometry time of flight (CyTOF) was used for the determination of the pharmacodynamic markers using a previously validated and tested panel of mass-tagged antibodies[39],[40]. The antibodies in the panel are listed in Supplementary Table 5. Briefly, fixed leukocytes from peripheral blood were barcoded using a 20-plex metal barcoding kit (Standard Biotools, Cell-ID 201060) according to manufacturer’s protocol, allowing all the samples from a single individual to be stained and analysed in parallel. All analysis runs included barcoded peripheral blood mononuclear cells (PBMCs) from at least one healthy donor and an identical barcoded reference sample (mix of PBMCs from six healthy donors). […]
(§2) For each population, marker, and sample, the 95th percentile of the non-transformed expression values was calculated. […]

Tie2 = target: Tie2; design: method as in Investigator's Brochure (IB) version 5.0; settings: ref Investigator's Brochure (IB) version 5.0; cited from earlier work
pS6 S235/S236 = assay: CyTOF maximal inhibition in Undefined/Immature Myeloid cells: pS6; assay type: in vivo; settings: Homo sapiens, N = 12 patients, read-out: EC50 (± standard error), pS6 S235/S236 inhibition
Description: as §1, §2

hERG channel = system: hERG channel; design: method as in Investigator's Brochure (IB) version 5.0; settings: ref Investigator's Brochure (IB) version 5.0; cited from earlier work
Flt1 = target: Flt1; design: method as in Investigator's Brochure (IB) version 5.0; settings: ref Investigator's Brochure (IB) version 5.0; cited from earlier work
Yes [2] = target: Yes; design: method as in Investigator's Brochure (IB) version 5.0; settings: ref Investigator's Brochure (IB) version 5.0; cited from earlier work; remark: listed apart in the source
human lymphocytes = system: human lymphocytes; design: method as in Investigator's Brochure (IB) version 5.0; settings: ref Investigator's Brochure (IB) version 5.0; cited from earlier work
OCI-AML5 xenograft = system: OCI-AML5 xenograft; design: method as in Investigator's Brochure (IB) version 5.0; settings: ref Investigator's Brochure (IB) version 5.0; cited from earlier work
AML/MDS patients = assay: ECG QTcF prolongation (Fridericia), graded; assay type: in vivo
Description: Electrocardiograms were obtained at screening, Cycle 1 Day 1–4, 8, and 15, Cycle 2 Day 1, 8 and 15, at Day 1 of each cycle thereafter, (up to and including Cycle 15), and at Final Study Visit. QT prolongation was assessed using the Fridericia correction QTcF=QT/RR3 [34]. Severity of QTcF prolongation was defined as follows: Grade 1: maximum prolongation 450–480 ms; Grade 2: maximum prolongation 481-500 ms; Grade 3: ≥501 ms on at least two separate ECGs; Grade 4: ≥501 ms or >60 ms change from baseline, with Torsades de pointes, polymorphic ventricular tachycardia or signs/symptoms of serious arrythmia; Grade 5: Death.

AML cell lines = system: AML cell lines; design: method as in Investigator's Brochure (IB) version 5.0; settings: ref Investigator's Brochure (IB) version 5.0, cited from earlier work
[3] = system: bone marrow cells from patients with primary AML; design: method as in Ben-Batalla et al., 2013; settings: ref Ben-Batalla et al., 2013; cited from earlier work

**Q.** Which results are given for `Nc1nc(Nc2ccc3c(c2)CC[C@@H](N2CCCC2)CC3)nn1-c1cc2c(nn1)-c1ccccc1CCC2` [Bemcentinib]?
**A.** Substrate and time-dependent inhibition of CYP3A4/5 activity (CYP3A4/5): modest; IC50 (Yes [1]): 43 nM; EC50 (pSTAT5 Y694; Homo sapiens, Undefined/Immature Myeloid cells, N = 12 patients, read-out: EC50 (± standard error), pSTAT5 Y694 inhibition): 0.0913 ± 0.0014 µg/mL (≈ 0.18 µM); Maximum inhibition (percent) pSTAT5 (Y694) (pSTAT5 Y694; Supplementary Figure 1b, individual patients): 86.7% and 72.9% and 100% and 27.9% and 21.4% and 51.2% and 0% and 36% and 58.4%; Kd (Tie2): 270 nM; EC50 (pS6 S235/S236): 0.1187 ± 0.0011 µg/mL (≈ 0.234 µM); IC50 (hERG channel): 530 nM; Kd (Flt1): 400 nM; Kd (Yes [2]): 810 nM; In vitro mammalian cell cytogenetic study result (human lymphocytes): negative; Tumor growth (OCI-AML5 xenograft): inhibited; Grade 4 or Grade 5 QTcF prolongation events (AML/MDS patients; DE and LDAC cohorts): No patients; No. of QTcF prolonged events: Grade 5 (AML/MDS patients; Dose Escalation Cohort Overall (N=36)): 0; No. of QTcF prolonged events: Grade 1 (AML/MDS patients; human, in vivo): 8; No. of QTcF prolonged events: Grade 2 (AML/MDS patients; human, in vivo): 7; No. of QTcF prolonged events: Grade 3 (AML/MDS patients; human, in vivo): 5; No. of QTcF prolonged events: Grade 4 (AML/MDS patients; human, in vivo): 0; Patients with only Grade 1 or Grade 2 QTcF prolongation / patients with QTcF prolongation (AML/MDS patients; human, in vivo): 5/9; Patients with Grade 3 QTcF prolongation (AML/MDS patients; in vivo): Four; Effect when administered with cytarabine (Ara-C) (AML cell lines; preliminary studies): at least additive; Effect of exposure in AML cell lines (AML cell lines; with G1 arrest, reduced phosphorylated axl and ERK): exposure-induced differentiation; Patients whose bone marrow cells were sensitive to BGB324 [3]: 7 out of 11; Sensitization of primary patient AML cells to Ara-C [3]: sensitizes
